Measured values published in patent publication US20060247227A1, “Substituted piperidines as histamine h3 receptor ligands” (priority 2003, published 2006).
Structures can show the parent of a compound that is named as a salt.

Molecular target: T1, histamine H3 receptor (Homo sapiens, UniProt Q9Y5N1)
T1 construct: expressed in transfected cells; host or cells: CHO K1 cells carrying pSwitch, transfected with pGeneH3 and induced with mifepristone; clone 3H3; membranes
Test: Histamine H3 functional antagonist assay ([35S]GTPγS, SPA, membranes of CHO K1 cells expressing the receptor)
Assay type: biochemical
Conditions: histamine-stimulated GTPγS binding, membranes with human H3
Description: A membrane preparation containing histamine H3 receptors may be prepared in accordance with the following procedures:
(i) Generation of Histamine H3 Cell Line
DNA encoding the human histamine H3 gene (Huvar, A. et al. (1999) Mol. Pharmacol. 55(6), 1101-1107) was cloned into a holding vector, pCDNA3.1 TOPO (InVitrogen) and its cDNA was isolated from this vector by restriction digestion of plasmid DNA with the enzymes BamH1 and Not-1 and ligated into the inducible expression vector pGene (InVitrogen) digested with the same enzymes. The GeneSwitch™ system (a system where in transgene expression is switched off in the absence of an inducer and switched on in the presence of an inducer) was performed as described in U.S. Pat. Nos. 5,364,791; 5,874,534; and 5,935,934. Ligated DNA was transformed into competent DH5α E. coli host bacterial cells and plated onto Luria Broth (LB) agar containing Zeocin™ (an antibiotic which allows the selection of cells expressing the sh ble gene which is present on pGene and pSwitch) at 50 μg ml^−1. Colonies containing the re-ligated plasmid were identified by restriction analysis. DNA for transfection into mammalian cells was prepared from 250 ml cultures of the host bacterium containing the pGeneH3 plasmid and isolated using a DNA preparation kit (Qiagen Midi-Prep) as per manufacturers guidelines (Qiagen).
CHO K1 cells previously transfected with the pSwitch regulatory plasmid (InVitrogen) were seeded at 2×10e6cells per T75 flask in Complete Medium, containing Hams F12 (GIBCOBRL, Life Technologies) medium supplemented with 10% v/v dialysed foetal bovine serum, L-glutamine, and hygromycin ([…]), 24 hours prior to use. Plasmid DNA was transfected into the cells using Lipofectamine plus according to the manufacturers guidelines (InVitrogen). 48 hours post transfection cells were placed into complete medium supplemented with […] Zeocin™.
10-14 days post selection 10 nM Mifepristone (InVitrogen), was added to the culture medium to induce the expression of the receptor. 18 hours post induction cells were detached from the flask using ethylenediamine tetra-acetic acid (EDTA; 1:5000; InVitrogen), following several washes with phosphate buffered saline pH 7.4and resuspended in Sorting Medium containing Minimum Essential Medium (MEM), without phenol red, and supplemented with Earles salts and 3% Foetal Clone II (Hyclone). Approximately 1×10e7 cells were examined for receptor expression by staining with a rabbit polyclonal antibody, 4a, raised against the N-terminal domain of the histamine H3 receptor, incubated on ice for 60 minutes, followed by two washes in sorting medium. Receptor bound antibody was detected by incubation of the cells for 60 minutes on ice with a goat anti rabbit antibody, conjugated with Alexa 488 fluorescence marker (Molecular Probes). Following two further washes with Sorting Medium, cells were filtered through a 50 μm Filcon™ (BD Biosciences) and then analysed on a FACS Vantage SE Flow Cytometer fitted with an Automatic Cell Deposition Unit. Control cells were non-induced cells treated in a similar manner. Positively stained cells were sorted as single cells into 96-well plates, containing Complete Medium containing 500 μg ml^−1 Zeocin™ and allowed to expand before reanalysis for receptor expression via antibody and ligand binding studies. One clone, 3H3, was selected for membrane preparation.
(ii) Membrane Preparation from Cultured Cells
All steps of the protocol are carried out at 4° C. and with pre-cooled reagents. The cell pellet is resuspended in 10 volumes of buffer A2 containing 50 mM N-2-hydroxyethylpiperazine-N′-2-ethanesulfonic acid (HEPES) (pH 7.40) supplemented with […] leupeptin (acetyl-leucyl-leucyl-arginal; Sigma L2884), 25 μg/ml bacitracin (Sigma B0125), 1 mM ethylenediamine tetra-acetic acid (EDTA), 1 mM phenylmethylsulfonyl fluoride (PMSF) and 2×10e-6M pepstain A (Sigma). […]

T1 sequence (Q9Y5N1 whole entry): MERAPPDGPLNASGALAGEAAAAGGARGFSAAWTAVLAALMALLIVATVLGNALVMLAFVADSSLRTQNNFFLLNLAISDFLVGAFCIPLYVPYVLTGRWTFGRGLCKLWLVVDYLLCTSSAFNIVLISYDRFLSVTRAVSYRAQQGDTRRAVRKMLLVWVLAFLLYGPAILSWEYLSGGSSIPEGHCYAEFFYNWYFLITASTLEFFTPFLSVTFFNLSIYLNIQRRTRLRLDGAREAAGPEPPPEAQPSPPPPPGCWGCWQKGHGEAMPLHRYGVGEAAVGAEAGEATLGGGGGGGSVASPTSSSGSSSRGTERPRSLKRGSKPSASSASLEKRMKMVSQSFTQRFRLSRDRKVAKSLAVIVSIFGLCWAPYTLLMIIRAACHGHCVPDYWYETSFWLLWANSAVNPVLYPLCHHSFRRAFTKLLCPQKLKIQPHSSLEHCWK

`Cc1ncc(-c2ccc(N3CCC(OC4CCN(C5CCC5)CC4)CC3)cc2)o1` [Example E22] and `Cc1cc(-c2ccc(N3CCC(OC4CCN(C5CCC5)CC4)CC3)cc2)on1` [Example E24] cannot be ordered by Ki: no more than 1 nM for the first, no more than 1 nM for the second.

`CC(C)N1CCC(OC2CCN(c3cccc(C(=O)N4CCOCC4)n3)CC2)CC1` [Example E61] and `CC(C)N1CCC(OC2CCN(c3ccc(C(=O)N4CCOCC4)cn3)CC2)CC1` [Example E53] cannot be ordered by Ki: less than 10 nM for the first, less than 10 nM for the second.

`CC(C)N1CCC(OC2CCN(c3ccc(C(=O)N4CCCC4)cn3)CC2)CC1` [Example E52] and `CC(C)N1CCC(OC2CCN(c3ccc(C(=O)N4CCCCC4)nc3)CC2)CC1` [Example E34] cannot be ordered by Ki: less than 10 nM for the first, no more than 1 nM for the second.

`CC(C)N1CCC(OC2CCN(c3ccc(C(=O)NC4CCCC4)nc3)CC2)CC1` [Example E45] and `CC(C)N1CCC(OC2CCN(c3ccc(C(=O)NC4CCC4)nc3)CC2)CC1` [Example E105, N-Cyclobutyl-5-(4-{[1-(1-methylethyl)-4-piperidinyl]oxy}-1-piperidinyl)-2-pyridinecarboxamide] cannot be ordered by Ki: no more than 1 nM for the first, no more than 1 nM for the second.

`CC(=O)c1ccc(N2CCC(OC3CCN(C4CCC4)CC3)CC2)nc1` [Example E93, 1-(6-{4-[(1-Cyclobutyl-4-piperidinyl)oxy]-1-piperidinyl}-3-pyridinyl)ethanone] and `CC(=O)c1ccc(N2CCC(OC3CCN(C4CCC4)CC3)CC2)cc1` [Example E48, 1-(4-{4-[(1-Cyclobutyl-4-piperidinyl)oxy]-1-piperidinyl}phenyl)ethanone hydrochloride] cannot be ordered by Ki: no more than 1 nM for the first, less than 0.316 nM for the second.

`CC(C)N1CCC(OC2CCN(c3cnc(C(F)(F)F)cn3)CC2)CC1` [Example E85, 2-(4-[1-(1-Methylethyl)-4-piperidinyl]oxy}-1-piperidinyl)-5-(trifluoromethyl)pyrazine hydrochloride] and `CNC(=O)c1cnc(N2CCC(OC3CCN(C(C)C)CC3)CC2)cn1` [Example E75] cannot be ordered by Ki: no more than 1 nM for the first, no more than 1 nM for the second.

`CN(C)C(=O)c1cccc(N2CCC(OC3CCN(C4CCC4)CC3)CC2)n1` [Example E63] and `O=C(c1cccc(N2CCC(OC3CCN(C4CCC4)CC3)CC2)n1)N1CCCC1` [Example E64] cannot be ordered by Ki: less than 10 nM for the first, less than 10 nM for the second.

`CC(C)N1CCC(OC2CCN(c3cnc(C(=O)NC4CCC4)cn3)CC2)CC1` [Example E79] and `CCNC(=O)c1cnc(N2CCC(OC3CCN(C4CCC4)CC3)CC2)cn1` [Example E71] cannot be ordered by Ki: no more than 1 nM for the first, no more than 1 nM for the second.

`O=C(c1cc(N2CCC(OC3CCN(C4CCC4)CC3)CC2)ccn1)N1CCCCC1` [Example E69] and `O=C(c1ccc(N2CCC(OC3CCN(C4CCC4)CC3)CC2)cc1)N1CCCC1` [Example E11] cannot be ordered by Ki: less than 10 nM for the first, no more than 1 nM for the second.

`Cc1noc(-c2ccc(N3CCC(OC4CCN(C(C)C)CC4)CC3)c(F)c2)n1` [Example E112, 1-[2-Fluoro-4-(3-methyl-1,2,4-oxadiazol-5-yl)phenyl]-4-{[1-(1-methylethyl)-4-piperidinyl]oxy}piperidine hydrochloride] and `Cc1noc(-c2ccc(N3CCC(OC4CCN(C5CCC5)CC4)CC3)cc2F)n1` [Example E110, 1-Cyclobutyl-4-({1-[3-fluoro-4-(3-methyl-1,2,4-oxadiazol-5-yl)phenyl]-4-piperidinyl}oxy)piperidine] cannot be ordered by Ki: no more than 1 nM for the first, no more than 1 nM for the second.

`CNC(=O)c1ccc(N2CCC(OC3CCN(C4CCC4)CC3)CC2)cn1` [Example E38, 5-{4-[(1-Cyclobutyl-4-piperidinyl)oxy]-1-piperidinyl}-N-methyl-2-pyridinecarboxamide hydrochloride] and `CNC(=O)c1ccc(N2CCC(OC3CCN(C4CCC4)CC3)CC2)cc1` [Example E6, 4-[4-[(1-Cyclobutyl-4-piperidinyl)oxy]-1-piperidinyl)-N-methylbenzamide hydrochloride] cannot be ordered by Ki: less than 0.316 nM for the first, no more than 1 nM for the second.

`O=C(NC1CCCC1)c1ccc(N2CCC(OC3CCN(C4CCC4)CC3)CC2)cn1` [Example E46] and `CC(C)(C)OC(=O)c1ccc(N2CCC(OC3CCN(C4CCC4)CC3)CC2)cn1` [Example E96, 1,1-Dimethylethyl 5-{4-[(1-cyclobutyl-4-piperidinyl)oxy]-1-piperidinyl}-2-pyridinecarboxylate] cannot be ordered by Ki: no more than 1 nM for the first, no more than 1 nM for the second.

`CCC(=O)c1ccc(N2CCC(OC3CCN(C4CCC4)CC3)CC2)cc1` [Example E90, 1-(4-{4-[(1-Cyclobutyl-4-piperidinyl)oxy]-1-piperidinyl}phenyl)-1-propanone] and `O=C(c1ccc(N2CCC(OC3CCN(C4CCC4)CC3)CC2)cc1)C1CC1` [Example E91] cannot be ordered by Ki: no more than 1 nM for the first, no more than 1 nM for the second.

`CC(C)N1CCC(OC2CCN(c3ccc(-c4cnco4)cc3)CC2)CC1` [Example E30] and `CC(C)N1CCC(OC2CCN(c3ccc(-c4ncco4)cc3)CC2)CC1` [Example E19] cannot be ordered by Ki: no more than 1 nM for the first, less than 10 nM for the second.

`c1ccc(-c2nnc(-c3ccc(N4CCC(OC5CCN(C6CCC6)CC5)CC4)cc3)o2)cc1` [Example E27] and `Cc1ccc2cc(N3CCC(OC4CCN(C5CCC5)CC4)CC3)ccc2n1` [Example E94, 6-{4-[(1-Cyclobutyl-4-piperidinyl)oxy]-1-piperidinyl}-2-methylquinoline hydrochloride] cannot be ordered by Ki: no more than 1 nM for the first, no more than 1 nM for the second.

`FC(F)(F)c1ccc(N2CCC(OC3CCN(C4CCC4)CC3)CC2)nn1` [Example E82, 3-{4-[(1-Cyclobutyl-4-piperidinyl)oxy]-1-piperidinyl}-6-(trifluoromethyl)pyridazine hydrochloride] and `FC(F)(F)c1ncc(N2CCC(OC3CCN(C4CCC4)CC3)CC2)cn1` [Example E88, 5-{4-[(1-Cyclobutyl-4-piperidinyl)oxy]-1-piperidinyl}-2-(trifluoromethyl)pyrimidine] cannot be ordered by Ki: less than 0.316 nM for the first, less than 0.316 nM for the second.

`CC[C@@H](C)N1CCC(OC2CCN(c3ccc(C(C)=O)cc3)CC2)CC1` [Example E102] and `CC(C)N1CCC(OC2CCN(c3ccc(C(=O)N(C)C)cc3)CC2)CC1` [Example E12] cannot be ordered by Ki: no more than 1 nM for the first, no more than 1 nM for the second.

`CC(C)N1CCC(OC2CCN(c3ccc(C(=O)N(C)C)nc3)CC2)CC1` [Example E32] and `CCCNC(=O)c1ccc(N2CCC(OC3CCN(C(C)C)CC3)CC2)cn1` [Example E41] cannot be ordered by Ki: no more than 1 nM for the first, no more than 1 nM for the second.

`CC(C)N1CCC(OC2CCN(c3ccc(C(=O)OC(C)(C)C)nc3)CC2)CC1` [Example E95, 1,1-Dimethylethyl 5-(4-{[1-(1-methylethyl)-4-piperidinyl]oxy}-1-piperidinyl)-2-pyridinecarboxylate] and `CC(C)N1CCC(OC2CCN(c3ccc(C(=O)N(C)C)cn3)CC2)CC1` [Example E51] cannot be ordered by Ki: no more than 1 nM for the first, less than 10 nM for the second.

`O=C(c1ccc(N2CCC(OC3CCN(C4CCC4)CC3)CC2)nc1)N1CCCC1` [Example E56] and `O=C(c1cccc(N2CCC(OC3CCN(C4CCC4)CC3)CC2)n1)N1CCOCC1` [Example E65] cannot be ordered by Ki: no more than 1 nM for the first, less than 10 nM for the second.

`CNC(=O)c1cccc(N2CCC(OC3CCN(C(C)C)CC3)CC2)n1` [Example E58] and `CC(C)N1CCC(OC2CCN(c3ccc(C#N)cn3)CC2)CC1` [Example E1, 6-(4-([1-(1-Methylethyl)-4-piperidinyl]oxy}-1-piperidinyl)-3-pyridinecarbonitrile hydrochloride] cannot be ordered by Ki: less than 10 nM for the first, less than 10 nM for the second.

`N#Cc1ccc(N2CCC(OC3CCN(C4CCC4)CC3)CC2)cn1` [Example E47, 5-{4-[(1-Cyclobutyl-4-piperidinyl)oxy]-1-piperidinyl}-2-pyridinecarbonitrile hydrochloride] and `CC(=O)c1ccc(N2CCC(OC3CCN(CC4CC4)CC3)CC2)cc1` [Example E103, 1-[4-(4-{[1-(Cyclopropylmethyl)-4-piperidinyl]oxy}-1-piperidinyl)phenyl]ethanone] cannot be ordered by Ki: no more than 1 nM for the first, less than 10 nM for the second.

For `CC(C)N1CCC(OC2CCN(c3ccc(C(=O)NCCCCl)cc3)CC2)CC1` [Example E106, N-(3-Chloropropyl)-4-(4-{[1-(1-methylethyl)-4-piperidinyl]oxy}-1-piperidinyl)benzamide hydrochloride], the Ki was no more than 1 nM.
